{"source": "patent US20090133166A1", "about": "“Methods for Improving Flowering Characteristics Using Methyl Dihydrojasmonate” (NEW BIOLOGY, INC., priority 2007, published 2009)", "key": {"[1]": {"system": "field grown ‘Julia Child’ roses", "assay": "Vase life / bloom stage of cut field grown roses after pre-harvest foliar treatment", "type": "in vivo", "design": "key to Bloom Stage Day 1 / Bloom Stage Day 3: a: Green Bud; b: Full Bud; c: Flower in early bloom stage; d: Flower in fully open stage; Flower in late bloom stage; Fully wilted flower; Flower drooped before fully opening", "description": "Foliage of field grown ‘Julia Child’ roses were sprayed to the point of drip 24 hours before harvesting with an aqueous solution comprising 5.0 mM MDHJ, 0.125% Triton® X-100, and 0.5% canola oil. On average, about 100 ml of the formulation was applied per plant, comprising an approximate volume of 130 μl (or 500 μM) MDHJ. Stems of flowers in the bud to early-bloom stage were cut in the field. Stems received a fresh cut while submerged under water before transferring to a water-filled vase. The bloom stage of 4-5 flowers was analyzed on day 1 and day 3, as compared with untreated roses that were otherwise similarly handled. FIG. 1 illustrates the full vases of flowers for the treated and untreated roses on day 1 and day 3, respectively. FIG. 2 illustrates individual roses on day 1 and day 3."}, "Parade Roses®": {"system": "Parade Roses®", "assay": "Flower development on intact flowering rose plants after foliar treatment", "type": "in vivo", "design": "key to Bloom Stage Day 1 / Bloom Stage Day 12: 1: Early bloom; 2: Fully Open; 3: Wilted", "description": "Parade Roses® with flowers in the bud to early bloom stage were treated to the point of drip on day 1 and day 2 with an aqueous solution comprising either (1) 0.125% Triton® X-100 and 0.5% canola oil as a control treatment; or (2) 1.5 mM MDHJ, 0.125% Triton® X-100, and 0.5% canola oil. There were four plants per treatment. Approximately 10 ml of each treatment was applied to each plant, comprising approximately 3.9 μL (15 μM MDHJ). Rate of flower development of individual flowers was monitored and compared between treatments. On day 1 and day 12, individual flowers were rated according to their stage of blooming. FIG. 3 is a photographic comparison of treated and untreated plants at day 1 and day 12."}, "[2]": {"settings": "plants treated before harvesting, vs untreated"}}, "note": "Values joined by “and” are separate entries in the source; they are usually repeats but may differ in a detail not shown here. Identical values can stand only once."}
{"compound": "CCCCCC1C(=O)CCC1CC(=O)OC", "note": "(stereo not shown) [MDHJ, methyl dihydrojasmonate]", "values": [{"measurement": "Bloom Stage Day 1", "setting": "[1]; individual cut flowers, day 1, foliage sprayed 24 hours before harvesting with 5.0 mM MDHJ, 0.125% Triton X-100, 0.5% canola oil, listed as Treated", "value": "d and c and b (2×)"}, {"measurement": "Bloom Stage Day 3", "setting": "[1]; individual cut flowers, day 3, foliage sprayed 24 hours before harvesting with 5.0 mM MDHJ, 0.125% Triton X-100, 0.5% canola oil", "value": "d"}, {"measurement": "Ability of buds to open fully into flowers", "setting": "[1]; plants treated before harvesting buds and early flowers, vs untreated", "value": "improving the ability of the buds to open fully into flowers"}, {"measurement": "Bent neck of stems", "setting": "[1]; [2]", "value": "prevents stems from exhibiting bent neck"}, {"measurement": "Flower wilting", "setting": "[1]; [2]", "value": "delays flower wilting"}, {"measurement": "Average Bloom Stage Day 1", "setting": "Parade Roses®; average of 8 flowers, day 1, scale 1 early bloom, 2 fully open, 3 wilted, 1.5 mM MDHJ formulation", "value": 1.4}, {"measurement": "Average Bloom Stage Day 12", "setting": "Parade Roses®; average of 8 flowers, day 12, scale 1 early bloom, 2 fully open, 3 wilted, 1.5 mM MDHJ formulation", "value": 1.4}, {"measurement": "Flower development on intact plants", "setting": "Parade Roses®; formulation containing MDHJ vs control formulation without MDHJ", "value": "prolonged flower development"}, {"measurement": "Bloom Stage Day 1", "setting": "Parade Roses®; individual flowers on intact plants, day 1, 1.5 mM MDHJ, 0.125% Triton X-100, 0.5% canola oil applied day 1 and day 2, listed as Treatment 2", "value": "2 (3×) and 1 (5×)"}, {"measurement": "Bloom Stage Day 12", "setting": "Parade Roses®; individual flowers on intact plants, day 12, 1.5 mM MDHJ, 0.125% Triton X-100, 0.5% canola oil applied day 1 and day 2, listed as Treatment 2", "value": "2 (3×) and 1 (5×)"}]}
